According to patent US20060234922A1, “Remedy for corneal failure” (priority 2002, published 2006):

Key:
Type in all cases: cell-based
[1] = system: cultured rabbit trigeminal nerve cells; test: Effect of somatostatin receptor agonist on axon extension of cultured rabbit trigeminal nerve cells (neurofilament absorbance at 492 nm, fluorescence microscopy); conditions: 48 hr culture; for absorbance indicating the neurofilament amount of the cells (492 nm): control group 0.798, n=3
Excerpt: Effect of Somatostatin Receptor Agonist on Axon Extension of Cultured Rabbit Trigeminal Nerve Cell (In Vitro Test)
Japanese White Rabbits (2-3 days old) purchased from KITAYAMA LABES Co., Ltd. were used.
As a somatostatin receptor agonist, which is a test substance, t-butyl 6-amino-2-(3-(1H-indol-3-yl)-2-((4-(2-oxo-2,3-dihydrobenzoimidazol-1-yl)piperidine-1-carbonyl)amino)propionylamino)hexanoate, which is an SSTR2 specific agonist (hereinafter to be referred to as compound 1), and 1-(3-(N-(5-bromopyridin-2-yl)-N-(3,4-dichlorobenzyl)amino)propyl)-3-(3-(1H-imidazol-4-yl)propyl)thiourea (hereinafter to be referred to as compound 2), which is an SSTR4 specific agonist, were used. The compound 1 was a compound of Example 4 and synthesized according to the method of Example 2 of JP-A-2001-519812 (WO98/44922). The compound 2 was synthesized according Example 15 of JP-A-2001-525793 (WO97/43278).
Rabbit trigeminal nerve cells were isolated by reference to the report of Chan et al. (Kuan Y. Chan and Richard H. Haschke. Exp. Eye Res. 41: 687-699, 1985). To be specific, under ether anesthesia, cardiac perfusion with saline was performed and trigeminal ganglia was removed. Using nerve dispersion solution (SUMITOMO BAKELITE Co., Ltd.), trigeminal ganglia was dispersed to prepare trigeminal nerve cells. For cell culture, Neurobasal medium (GIBCO) added with B27 Supplement (GIBCO; final concentration 2% v/v) and L-Glutamine (GIBCO; final concentration 1 mM) was used under the culture conditions of 5% CO2, 95% air, 100% humidity, 37° C., 48 hr. […]
After the completion of 48 hr culture, the cells innoculated on a 96 well plate were fixed with 4% paraformaldehyde and the neurofilament of the cell was labeled with anti-neurofilament 200 antibody (Sigma) specifically recognizing a neurofilament constituting nerve cell body and neurite and HRP conjugated goat anti-mouse IgG antibody (Wako Pure Chemical Industries, Ltd.). […] After the completion of coloring, the absorbance at 492 nm was measured and the measured value was taken as the amount of the stained neurofilament and used as an index for neuritogenesis (Taniwaki T., et al. Dev. Brain Res. (1995) 88, 109-166). The cells plated on an 8 well culture slide were fixed with 4% paraformaldehyde, a sample fixed with an anti-neurofilament 200 antibody (Sigma) was stained, and fluorescence labeled with Alexa Fluor 568 conjugated secondary antibody (Molecular probes). The fluorescence labeled cells were observed under a fluorescence microscope and the cell images were imported into a computer.

[2] = system: cultured rabbit trigeminal nerve cells; test: Effect of Octreotide on axon extension of cultured rabbit trigeminal nerve cells (anti-neurofilament 200 immunostaining, image analysis); conditions: Octreotide 10 μM final concentration, 24 hr culture
Excerpt: Effect of Octreotide on Axon Extension of Cultured Rabbit Trigeminal Nerve Cells (In Vitro Test)
(§1) Japanese White Rabbits (2-3 days old) purchased from Fukusaki Rabbit Warren were used.
Octreotide (SMS 201-995, American Peptide Company, Inc.) was used.
The cell culture: Trigeminal nerve cells were isolated by reference to the report of Chan et al. (Kuan Y. Chan and Richard H. Haschke. Exp. Eye Res. 41: 687-699, 1985). To be specific, under ether anesthesia, after cardiac perfusion of rabbit with saline, the trigeminal ganglia was removed, and dispersed in nerve dispersion solution (SUMITOMO BAKELITE Co., Ltd.). The cells were counted and innoculated in an 8 well culture slide (BECTON DICKINSON) coated with polylysine. The cell number was about 3×10^3 cells per well, and the culture conditions were 5% CO2, 95% air, 37° C. […] Immunostaining: At 24 hr from culture, the cells were fixed with 4% paraformaldehyde at room temperature for 2 hr, and nerve cell, axon and dendrite were fluorescence stained with anti-neurofilament 200 antibody (NF, Anti-Neurofilament 200, Sigma) specifically recognizing a neurofilament constituting the nerve cell and neurite. The images of the stained cells were imported into a computer from the fluorescence microscope, and the effect of Octreotide on the neurite formation and axon extension was evaluated using an image analysis soft (MacSCOP, MITANI CO.). […]

[3] = system: cultured rabbit trigeminal nerve cells; test: Nerve axon extension promoting action in cultured rabbit trigeminal nerve cells (phase contrast microscopy); conditions: NGF 1 μg/mL final concentration, 48 hr culture, compared to non-addition group
Procedure: Nerve Axon Extension Promoting Action in Cultured Rabbit Trigeminal Nerve Cells (In Vitro Experiment)
as §1
As a test substance, somatostatin (manufactured by CALBIOCHEM, Lot B33795) and NGF (NGF-7S, manufactured by Sigma) were used. The test substance was dissolved in phosphate buffer (PBS) to 100 μM somatostatin, 20 μg/mL NGF-7S. The prepared reagents were preserved at −80° C. and dissolved before use.
The trigeminal nerve cell was isolated according to the report of Chan et al. (Kuan Y. Chan and Richard H. Haschke. Exp. Eye Res. 41: 687-699, 1985). To be specific, under ether anesthesia, after cardiac perfusion of rabbit with saline, the trigeminal ganglia was removed, trigeminal ganglia was dispersed using a nerve dispersion solution (SUMITOMO BAKELITE Co., Ltd.), and the cells were plated in a 24-well plate (SUMITOMO BAKELITE Co., Ltd.) coated with polylysine/laminin. The number of cells was about 3000 cells per well and the culture conditions were 5% CO2, 95% air at 37° C. […]
The effect on the formation of neurite and the axon extension from trigeminal nerve cell by somatostatin and NGF were morphologically evaluated by the observation using a phase contrast microscope.

`CC(C)(C)OC(=O)C(CCCCN)NC(=O)C(Cc1c[nH]c2ccccc12)NC(=O)N1CCC(n2c(=O)[nH]c3ccccc32)CC1` (stereo not shown) [compound 1, t-butyl 6-amino-2-(3-(1H-indol-3-yl)-2-((4-(2-oxo-2,3-dihydrobenzoimidazol-1-yl)piperidine-1-carbonyl)amino)propionylamino)hexanoate] was tested, and the “neuritogenic cells compared with the control group (fluorescence microscopic images)” value ([1]; final concentration 1 μM) was “increase in the neuritogenic cells” and the “absorbance indicating the neurofilament amount of the cells (492 nm)” value ([1]; final concentration 1 μM) was 0.876.

In the case of `C[C@@H](O)[C@@H]1NC(=O)[C@H](CCCCN)NC(=O)[C@@H](Cc2c[nH]c3ccccc23)NC(=O)[C@H](Cc2ccccc2)NC(=O)[C@@H](NC(=O)[C@H](N)Cc2ccccc2)CSSC[C@@H](C(=O)N[C@H](CO)[C@@H](C)O)NC1=O` [Octreotide], the “neuritogenic cells compared to the control cell group (fluorescence microscopic images)” value [2] is reported as “neuritogenic cells increased” and the “proportion (%) of neuritogenic cell to the total cell number” value ([2]; control group about 21%, n=3, p<0.05) is reported as “about 43%”.

With `S=C(NCCCc1c[nH]cn1)NCCCN(Cc1ccc(Cl)c(Cl)c1)c1ccc(Br)cn1` [compound 2, 1-(3-(N-(5-bromopyridin-2-yl)-N-(3,4-dichlorobenzyl)amino)propyl)-3-(3-(1H-imidazol-4-yl)propyl)thiourea] the “neuritogenic cells compared with the control group (fluorescence microscopic images)” value ([1]; final concentration 0.1 μM) was “increase in the neuritogenic cells” and the “absorbance indicating the neurofilament amount of the cells (492 nm)” value ([1]; final concentration 0.1 μM) was 0.850.

B1: NGF: nerve growth factor (NGF-7S, manufactured by Sigma) (protein, UniProt P01139 122-241, looked up)
Beta-nerve growth factor: SSTHPVFHMGEFSVCDSVSVWVGDKTTATDIKGKEVTVLAEVNINNSVFRQYFFETKCRASNPVESGCRGIDSKHWNSYCTTTHTFVKALTTDEKQAAWRFIRIDTACVCVLSRKATRRG
modifications: 7S complex
In the case of B1, the “formation of neurite and axon extension from trigeminal nerve cell, morphological evaluation” value [3] is reported as “clear nerve cell axon extension-promoting action was observed”.
